Experimental data published in patent US20100286247A1, “Methods of Protection from Oxidative Stress” (Trustees of Boston University, priority 2005, published 2010).
{P} = phosphate

Tests used:
SOD1 mRNA = test: Northern blot analysis of antioxidant enzyme mRNA: SOD1; assay type: cell-based, human; conditions: 100 μM pTT, 8-72 hours, three donors
Protocol: (§1) Cell culture followed previously published methods.^92 Primary human newborn dermal fibroblasts were cultured from neonatal circumcised foreskin specimens. The skin samples were treated overnight in a 0.25% trypsin solution at 4° C. to separate the epidermis from the dermis. The separated dermis was then cut into pieces and plated onto etched plastic tissue culture dishes. Primary culture medium consisted of DMEM supplemented with 10% bovine CS, 50 U/ml penicillin and 50 μg/ml streptomycin sulfate. […] Secondary culture medium consisted of DMEM supplemented with 10% CS.
Purified 5′-phosphorylated thymidine dinucleotides (pTT) (Midland Certified Reagents, Inc., Texas) purified by gel filtration and analyzed by mass spectroscopy, were obtained in lyophilized form. […] The stock solution was syringe filter-sterilized through a 0.2 μm pore filter and spectrophotometrically analyzed (absorbance at 260 and 280 nm) to determine the concentration, and frozen in aliquots at −20° C. […]
Cells were harvested in Trizol (Gibco BRL, Gaithersburg, Md.) and stored at −70° C. […] RNA solutions were measured by spectrophotometer readings at 260 nm and 280 nm to determine concentration and purity. […]
Northern and western films as well as stained membranes and pictures of ethidium bromide-stained gels were digitally scanned and analyzed by densitometry. […]

[1] = test system: primary human newborn dermal fibroblasts; test: Determination of cell yields (Coulter counts); assay type: cell-based
Protocol: as §1
Equal numbers of fibroblasts were seeded into 32 mm culture dishes, and paired dishes were treated with pTT or diluent control as described above. At 24, 48 and 72 hours of treatment, the cells were harvested by trypsinization and counted in an automated cell counter (Coulter Z Series, Beckman Coulter, Inc., Fullerton, Calif.). The experiments were conducted in parallel with the MTS assay, using the same donor cells.
Cell yields of pTT-treated fibroblasts were compared to diluent using 2-way ANOVA and a total of four different experiments, to identify significant difference between treatment groups as a function of cell number and time. The parallel MTS assay also utilized the 2-way ANOVA, to compare changes in OD at 492 nm as a function of time and treatment modality. […]

[2] = test system: neonatal foreskin fibroblasts; test: Hydrogen peroxide oxidative challenge, cell yields
Protocol: Early passage neonatal foreskin fibroblasts were passed to 100 mm dishes and pretreated 24 hours after passage with 100 μM pTT or diluent control. […] For each experiment fresh H2O2 solutions were made in DMEM. The H2O2 and control DMEM solutions were made and sterilized through 0.45 μm syringe filters immediately before treatment. After the one-hour treatment with H2O2 or diluent control, fresh medium was provided. Cells were harvested at later timepoints by a brief washing in 1× EDTA, followed by trypsinization at 37° C. Cell yields were determined using the Coulter Z cell counter.
The hydrogen peroxide oxidative challenge assay data were generated with the combined results of four separate experiments. The averages for each treatment condition and timepoint studied (8, 24, 48, and 72 hours) were used to calculate the percent of adherent H2O2 treated cells relative to diluent-treated cells. Changes in cell yield were determined as a function of time using General Linear Model with repeated measure analysis (SPSS Version 10).
After 72 hours of pretreatment with either 100 μM pTT or diluent control, the same number of cells were replated with fresh 10% CS DMEM lacking pTT. The following day they were exposed to a dose of 25 μM H2O2 or DMEM control for 1 hour, and cell yields were determined at 8, 24, 48 and 72 hours following the H2O2 treatment.
Newborn fibroblasts cells were plated in DMEM supplemented with 10% CS. Forty-eight hours after plating, cells were provided fresh medium. Twenty-four hours later, cells were provided fresh medium containing 40 μM of p[sequence] (abbreviated as TO, SEQ ID NO: 1) or diluent as a control. Seventy-two hours later, cells were harvested and replated in fresh medium lacking oligonucleotides. Twenty-four hours later, cells were provided fresh H2O2 (25 μM) or diluent for 1 hour and then provided fresh DMEM with 10% CS. Cell yield was then measured in TO-pre-treated cultures as well as control cultures.

total p53 protein = test: Western blot of total p53 (DO-1); assay type: cell-based, human; conditions: by 36-48 hours, sustained through 72 hours; 40 μM TO, 100 μM pTT
Protocol: Western blot analysis of proteins from cells treated and harvested in parallel with DCF time course studies was conducted as described above. Membranes were reacted with antibodies to total p53/DO-1 (1:1000 dilution, Oncogene Research Products, Cambridge, Mass.), anti-phoso-p53 (Ser-15) (1:1000 dilution, Cell Signaling Technology, Beverly, Mass.), and p21/Cip1/Waf1 (1:500 dilution, Transduction Laboratories, Lexington, Ky.), followed by appropriate secondary antibodies diluted 1:2000.

| Substance | SOD1 mRNA level compared to diluent (SOD1 mRNA) | rate of fibroblast growth (cell yields) during treatment vs diluent ([1]; 100 μM pTT, 24-72 hours, 2-way ANOVA p=0.0079) | growth after replating in regular medium vs diluent-pretreated cells ([1]; 72 hours pretreatment with 100 μM pTT, no H2O2, p=0.0006) | cell yields over time following exposure to H2O2 vs diluent pretreated ([2]; 100 μM pTT 72 hours pretreatment, 25 μM H2O2 1 hour, p=0.0008) | cell yields at 8 hours after H2O2 treatment vs diluent-pretreated ([2]; 100 μM pTT pretreatment, 25 μM H2O2) | higher relative cell yields (percentage of respective H2O2 controls) vs diluent-pretreated ([2]; 100 μM pTT pretreatment, 24 and 48 hours after 25 μM H2O2) | total p53 (DO-1) protein response, TO vs pTT (total p53 protein) | resistance to H2O2 measured by total cell yield ([2]; 40 μM TO 72 hours pretreatment, 25 μM H2O2 1 hour, up to 48 hours) | cells surviving oxidative challenge by H2O2 (cell yield as percent of own diluent control) ([2]; 40 μM TO pretreatment, 25 μM H2O2, non-treated control 52%) |
| --- | --- | --- | --- | --- | --- | --- | --- | --- | --- |
| 5′-phosphorylated thymidine dinucleotides [pTT] | no difference between pTT- and diluent-treated cells | significantly decreased | significantly stimulated growth | higher cell yields | lower cell yields than in the diluent-pretreated group | 10% | – | – | – |
| pGTTAGGGTTAG (5' {P}, sugars by position and backbone not given here) [TO] | – | – | – | – | – | – | greater than to pTT | increased resistance to H2O2 | 75% |
